Test results reported in patent US20240307325A1, “COMPOUNDS, COMPOSITIONS, AND METHODS FOR TREATING OR AMELIORATING NONALCOHOLIC FATTY LIVER DISEASE AND RELATED DISEASES OR DISORDERS” (Thomas Jefferson University, priority 2021, published 2024).

Key:
[1] = system: HFD fed mice; assay: High fat diet-induced hepatic steatosis and whitening of brown adipose tissue in mice; type: in vivo; conditions: versus vehicle, H&E staining
Source text: FIG. 6A illustrate certain aspects of the study design. […] FIG. 6B show H&E staining images of liver from mice in FIG. 6A. […] Representative images from H&E-stained BAT of mice after an 8-week HFD. Images taken at 14×, scalebar=200 um.
(§1) Refer to FIGS. 5 and 6A-6C, pharmacological inhibition of Sigma1 phenocopy certain aspects of Sigma1 knockdown. […] The small molecule inhibitor IPAG also eliminate oleic acid, cholesterol, and glucose induced lipid droplets by lipophagy (FIG. 5).

[2] = system: IL-17; assay: Pro-inflammatory cytokine levels in HT-29 cells: IL-17; type: cell-based, human
Source text: (§2) The fibrosis associated pro-inflammatory cytokines include soluble IL-6, TNFα, and IL-17, which are contributors to the progression of NAFLD to NASH with fibrosis.

[3] = biological target: Sigma1 (Homo sapiens, UniProt Q99720); conditions: read-out: Ki (binds Sigma1)
[4] = Oral bioavailability; conditions: in vivo
[5] = system: CEREP Safety 44 panel; assay: CEREP Safety 44 panel screen
[6] = system: liver; conditions: even at doses that exceed the concentrations proposed herein; cited from earlier work
[7] = system: TNFα; assay: Pro-inflammatory cytokine levels in HT-29 cells: TNFα; type: cell-based, human
Source text: as §2

[8] = system: mouse; assay: Tumor xenograft experiments with daily oral dosing: tolerability; type: in vivo; conditions: daily oral dosing extended beyond 4 weeks
[9] = system: LNCaP cells; assay: DHT-induced lipid droplet formation and accumulation in LNCaP cells (confocal, HCS-LipidTox stain); type: cell-based; conditions: 72 h 1 nM DHT, compound 10 uM for the final 16 hours
Description: FIGS. 4A-4B illustrate the finding that Sigma1 (σ1) knockdown by transduction of SIGMAR1 targeted shRNA using a lentiviral vector abrogates lipid droplet (LD) accumulation, in accordance with some embodiments. FIG. 4A: Confocal micrographs of LNCaP cells treated with 72 hours (72 h) with dihydrotestosterone (DHT) to induce the formation and accumulation of LDs. Non-specific Control shRNA was compared to SIGMAR1 transcript selective shRNAs in lentiviral vectors. σ1 shR #4=MISSION/SigmaAldrich clone TRCN0000061010: σ1 shR #5=MISSION/SigmaAldrich clone TRCN0000061008. White boxes indicate areas magnified and shown immediately below. Note nearly complete elimination of LDs. FIG. 4B: Immunoblot confirming knockdown of Sigma1 by lentiviral Sigma1 (σ1) shRNAs. LDs are stained with HCS-LipidTox fluorescent stain in red. Blue DAPI stained nuclei.
FIG. 5 illustrates the finding that pharmacological Sigma1 modulator/inhibitor 1-(4-Iodophenyl)-3-(2-adamantyl)guanidine (IPAG) eliminates lipid droplets (LDs), in accordance with some embodiments. Confocal micrographs of LNCaP cells treated with 72 hours (72 h) with 1 nM dihydrotestosterone (DHT) to induce the formation and accumulation of LDs. In the far right panel, the LNCaP cells were treated with a prototypic Sigma1 selective small molecule compound, IPAG (10 uM), for the final 16 hours of the 72 h DHT treatment period. […]

[10] = system: lipid droplets; assay: Oleic acid, cholesterol and glucose induced lipid droplets; type: cell-based; conditions: by lipophagy
Source text: as §1

Sigma1, sequence (Q99720 whole entry): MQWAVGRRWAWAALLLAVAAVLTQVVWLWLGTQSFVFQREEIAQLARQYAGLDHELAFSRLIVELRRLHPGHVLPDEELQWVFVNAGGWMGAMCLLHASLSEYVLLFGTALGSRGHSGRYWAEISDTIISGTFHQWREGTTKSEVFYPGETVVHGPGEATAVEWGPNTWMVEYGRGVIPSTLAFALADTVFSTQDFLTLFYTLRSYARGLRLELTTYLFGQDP

Row | SMILES | level of whitening of brown adipose tissue ([1]; HFD fed mice (8-week HFD), oral) | level of liver fat ([1]; HFD fed mice, oral (PO 3 days per week)) | level of IL-17 [2] | Ki [3] [nM] | oral bioavailability [4] | off-target liabilities [5] | liver toxicity [6] | level of TNFα [7] | changes in mouse behavior [8] | changes in mouse body weight [8] | lipid droplets (LDs) [9] | oleic acid, cholesterol, and glucose induced lipid droplets [10]
1 | N=C(NCCCOc1ccc(F)cc1)Nc1ccc(Cl)cc1 [CT-189, 1-(3-(4-fluorophenoxy)propyl)-3-(4-chlorophenyl)guanidine] | significantly reduced | significantly reduced | suppresses levels | 38 | orally bioavailable | limited off-target liabilities | does not induce liver toxicity | suppresses levels | no detectable changes | no detectable changes | – | –
2 | N=C(Nc1ccc(I)cc1)NC1C2CC3CC(C2)CC1C3 (stereo not drawn) [IPAG, 1-(4-Iodophenyl)-3-(2-adamantyl)guanidine] | – | – | – | – | – | – | – | – | – | – | eliminates | eliminate
